The values that follow come from patent US20250353891A1 (MEDIMMUNE LIMITED, priority 2022, published 2025).

As a reminder, the EC50 is the concentration at which the effect is half-maximal.

Assay [1] addresses human GLP-1 receptor (hGLP-1R) (Homo sapiens, UniProt P43220). In words: cAMP production (HTRF) in CHO cells expressing hGLP-1R. Particulars: for EC50: Table 6, peptides modified at position 17, cAMP in CHO hGLP-1R cells, geometric mean, read-out: hGLP-1R EC50; for % Relative Potency Ratio: Table 6, % GLP-1R activity relative to GLP-1 / % GlucR activity relative to glucagon. It counts as cell-based. On the set-up: expressed in transfected cells. In short, it runs like this:
(§1)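 Potency values represent EC50 from 4-parameter logistic curves of HTRF % Delta F signal. Receptor-expressing CHO cells (hGCGR 2×10^5 cells/mL, hGLP-1R 1×10^5 cells/mL) were exposed for 30 min at room temperature before two-step cAMP detection.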
A general note: cAMP levels reflect the balance of adenylyl cyclase and phosphodiesterase activity.

In assay [2] the target is human glucagon receptor (hGCGR) (Homo sapiens, UniProt P47871). In words: cAMP production (HTRF) in CHO cells expressing hGCGR. It counts as cell-based. The conditions noted are these: Table 6, peptides modified at position 17; cAMP in CHO hGCGR cells; geometric mean; read-out: hGluc-R EC50. On the set-up: expressed in transfected cells. The essentials:
as §1

Structures are written as SMILES. Starred links: 1 amine or outer side, 2 acyl side, 3 side chain; linkers in the order of their positions; H or OH if unused. Non-standard residues stand in square brackets, D forms with d. Residues, ends and D or L forms follow the SMILES beside them. Groups on a side chain read outwards from the residue. *: point of attachment. C18 diacid = O=C(O)CCCCCCCCCCCCCCCCC(=O)*; γGlu = O=C(O)[C@H](CCC(=O)[*:2])N[*:1]; αMeF = C[C@](N)(Cc1ccccc1)C(=O)O; AEEA = NCCOCCOCC(=O)O; Aib = CC(C)(N)C(=O)O

human GLP-1 receptor (hGLP-1R), sequence (P43220 24-463): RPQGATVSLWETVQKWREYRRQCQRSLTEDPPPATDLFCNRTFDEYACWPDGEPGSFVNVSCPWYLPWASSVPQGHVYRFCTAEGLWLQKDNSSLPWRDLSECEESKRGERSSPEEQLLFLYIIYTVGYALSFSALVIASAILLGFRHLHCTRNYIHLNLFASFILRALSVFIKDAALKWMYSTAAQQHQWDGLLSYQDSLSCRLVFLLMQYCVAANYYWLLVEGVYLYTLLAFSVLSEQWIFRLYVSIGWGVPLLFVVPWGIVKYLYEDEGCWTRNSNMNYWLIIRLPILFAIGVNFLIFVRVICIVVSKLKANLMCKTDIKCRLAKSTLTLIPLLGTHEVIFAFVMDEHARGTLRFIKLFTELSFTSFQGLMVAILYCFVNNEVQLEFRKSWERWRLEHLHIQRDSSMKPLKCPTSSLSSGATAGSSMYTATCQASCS
human glucagon receptor (hGCGR), sequence (P47871 26-477): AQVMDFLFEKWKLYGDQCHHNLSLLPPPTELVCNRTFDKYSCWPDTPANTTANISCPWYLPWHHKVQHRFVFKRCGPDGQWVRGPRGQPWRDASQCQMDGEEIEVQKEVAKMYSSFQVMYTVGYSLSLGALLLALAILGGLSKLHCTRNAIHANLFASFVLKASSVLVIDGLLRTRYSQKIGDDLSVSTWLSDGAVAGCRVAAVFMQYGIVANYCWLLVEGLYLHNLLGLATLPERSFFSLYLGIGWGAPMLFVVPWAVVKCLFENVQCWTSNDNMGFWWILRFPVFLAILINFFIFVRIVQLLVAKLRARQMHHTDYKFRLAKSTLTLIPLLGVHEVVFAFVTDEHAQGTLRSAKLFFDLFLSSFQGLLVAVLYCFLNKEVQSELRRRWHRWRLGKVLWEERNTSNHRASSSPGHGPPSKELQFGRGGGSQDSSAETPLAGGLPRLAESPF

With `CC(C)C[C@H](NC(=O)[C@H](Cc1c[nH]c2ccccc12)NC(=O)[C@H](CCCNC(=N)N)NC(=O)[C@@H](NC(=O)[C@H](Cc1ccccc1)NC(=O)[C@H](CC(=O)O)NC(=O)[C@H](CCCNC(=N)N)NC(=O)[C@H](C)NC(=O)[C@H](CCCNC(=N)N)NC(=O)[C@H](CCCCNC(=O)COCCOCCNC(=O)COCCOCCNC(=O)CC[C@H](NC(=O)CC[C@H](NC(=O)CCCCCCCCCCCCCCCCC(=O)O)C(=O)O)C(=O)O)NC(=O)[C@H](CCCCN)NC(=O)[C@H](CC(=O)O)NC(=O)[C@H](CC(C)C)NC(=O)[C@](C)(Cc1ccccc1)NC(=O)[C@H](CCCCN)NC(=O)[C@H](CO)NC(=O)[C@@H](NC(=O)[C@H](CC(=O)O)NC(=O)[C@H](CO)NC(=O)[C@@H](NC(=O)[C@H](Cc1ccccc1)NC(=O)[C@@H](NC(=O)CNC(=O)[C@H](CCC(N)=O)NC(=O)C(C)(C)NC(=O)[C@@H](N)Cc1c[nH]cn1)[C@@H](C)O)[C@@H](C)O)C(C)C)C(C)C)C(=O)N[C@@H](CC(C)C)C(=O)NC(C)(C)C(=O)N[C@@H](CCC(=O)O)C(=O)O` [Peptide 448] (H-H[Aib]QGTFTSDVSK[αMeF]LDKK([AEEA-AEEA-γGlu-γGlu-C18 diacid])RARDFVRWLL[Aib]E-OH), in assay [1], the EC50 amounted to 0.0531 nM and the “% Relative Potency Ratio” value was found to be 1.1. The EC50 in assay [2] was determined as 0.029 nM.

Consider `CC(C)C[C@H](NC(=O)[C@H](Cc1c[nH]c2ccccc12)NC(=O)[C@H](CCC(N)=O)NC(=O)[C@@H](NC(=O)[C@H](Cc1ccccc1)NC(=O)[C@H](CC(=O)O)NC(=O)[C@H](CCCNC(=N)N)NC(=O)[C@H](C)NC(=O)[C@H](CCCNC(=N)N)NC(=O)[C@H](CCCCNC(=O)COCCOCCNC(=O)COCCOCCNC(=O)CC[C@H](NC(=O)CC[C@H](NC(=O)CCCCCCCCCCCCCCCCCCC(=O)O)C(=O)O)C(=O)O)NC(=O)[C@@H](NC(=O)[C@H](CC(=O)O)NC(=O)[C@H](CC(C)C)NC(=O)[C@](C)(Cc1ccccc1)NC(=O)[C@H](CCCCN)NC(=O)[C@H](CO)NC(=O)[C@@H](NC(=O)[C@H](CC(=O)O)NC(=O)[C@H](CO)NC(=O)[C@@H](NC(=O)[C@H](Cc1ccccc1)NC(=O)[C@@H](NC(=O)CNC(=O)[C@H](CCC(N)=O)NC(=O)C(C)(C)NC(=O)[C@@H](N)Cc1c[nH]cn1)[C@@H](C)O)[C@@H](C)O)C(C)C)[C@@H](C)O)C(C)C)C(=O)N[C@@H](CC(C)C)C(=O)N[C@@H](CCC(=O)O)C(=O)NC(C)(C)C(=O)NCC(=O)O` [Peptide 449], for which, in assay [1], the concentration giving a half-maximal response (EC50) is 0.207 nM and the “% Relative Potency Ratio” value was found to be 2.3. In assay [2], the EC50 turned out to be 0.242 nM.

For `CC(C)C[C@H](NC(=O)[C@H](Cc1c[nH]c2ccccc12)NC(=O)[C@H](CCCNC(=N)N)NC(=O)[C@@H](NC(=O)[C@H](Cc1ccccc1)NC(=O)[C@H](CC(=O)O)NC(=O)[C@H](CCC(N)=O)NC(=O)[C@H](C)NC(=O)[C@H](CCCNC(=N)N)NC(=O)[C@H](CCCCNC(=O)COCCOCCNC(=O)COCCOCCNC(=O)CC[C@H](NC(=O)CC[C@H](NC(=O)CCCCCCCCCCCCCCCCC(=O)O)C(=O)O)C(=O)O)NC(=O)[C@H](CCCCN)NC(=O)[C@H](CC(=O)O)NC(=O)[C@H](CC(C)C)NC(=O)[C@](C)(Cc1ccccc1)NC(=O)[C@H](CCCCN)NC(=O)[C@H](CO)NC(=O)[C@@H](NC(=O)[C@H](CC(=O)O)NC(=O)[C@H](CO)NC(=O)[C@@H](NC(=O)[C@H](Cc1ccccc1)NC(=O)[C@@H](NC(=O)CNC(=O)[C@H](CCC(N)=O)NC(=O)C(C)(C)NC(=O)[C@@H](N)Cc1c[nH]cn1)[C@@H](C)O)[C@@H](C)O)C(C)C)C(C)C)C(=O)N[C@@H](CC(C)C)C(=O)N[C@@H](CCC(=O)O)C(=O)NC(C)(C)C(=O)NCC(=O)O` [Peptide 450] (H-H[Aib]QGTFTSDVSK[αMeF]LDKK([AEEA-AEEA-γGlu-γGlu-C18 diacid])RAQDFVRWLLE[Aib]G-OH; N-terminus assumed), in assay [1], the EC50 turned out to be 0.0573 nM and the “% Relative Potency Ratio” value is recorded as 2.0. In assay [2], the EC50 was determined as 0.0578 nM.
